Test results from US8053453B2, “Pyrazolone compounds and thrombopoietin receptor activator” (Nissan Chemical Industries, Ltd., priority 2002, dated 2011).
Read-outs that look alike come from different tables or passages of the source.

Target: T1, human TPO receptor (Homo sapiens, UniProt P40238)
T1 construct: expressed in transfected cells
T1 sequence (P40238 26-635): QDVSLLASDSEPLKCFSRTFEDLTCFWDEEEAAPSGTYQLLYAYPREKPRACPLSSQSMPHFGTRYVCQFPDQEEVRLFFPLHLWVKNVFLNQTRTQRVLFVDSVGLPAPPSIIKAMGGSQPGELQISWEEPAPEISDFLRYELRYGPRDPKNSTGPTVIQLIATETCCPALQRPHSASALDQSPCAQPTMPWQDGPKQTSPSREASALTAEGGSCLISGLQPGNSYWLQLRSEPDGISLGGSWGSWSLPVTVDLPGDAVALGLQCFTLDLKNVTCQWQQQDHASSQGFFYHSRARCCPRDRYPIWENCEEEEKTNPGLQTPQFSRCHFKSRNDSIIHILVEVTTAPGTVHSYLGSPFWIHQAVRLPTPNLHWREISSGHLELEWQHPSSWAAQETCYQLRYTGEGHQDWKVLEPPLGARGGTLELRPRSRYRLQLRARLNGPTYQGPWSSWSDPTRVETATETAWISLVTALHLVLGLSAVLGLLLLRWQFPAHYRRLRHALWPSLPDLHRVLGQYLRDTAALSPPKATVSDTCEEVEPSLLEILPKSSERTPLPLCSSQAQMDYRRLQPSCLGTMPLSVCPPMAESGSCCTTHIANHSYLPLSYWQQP
Assay: Proliferation of TPO-dependent cell line UT7/EPO-mpl, MTT method (Assay Examples 1, 3, 4)
Type: cell-based
Conditions: UT7/EPO-mpl cells; for EC50: concentration giving 50% of the maximum cell growth observed with the same compound; for Efficacy (%) (maximal growth rate) / Emax: value in the presence of 10 ng/ml TPO taken as 100% standard, method of Assay Example 1; for Emax: read-out: Efficacy (%) (maximal growth rate)
Method: The reactivity of Synthetic Example 56, the compound of the present invention, with thrombopoietin (TPO) receptor was assayed using a human leukemic cell line, UT7/EPO-mpl.
UT7/EPO-mpl is a stable transformed cell line obtained by introducing into human leukemic cell line UT7/EPO a vector that induces expression of human TPO receptor (c-mp1) under control of a cytomegaloviral promoter by the method of Takatoku et al. (J. Biol. Chem., 272:7259-7263 (1997)). […] These two cell lines were subcultured in Iscove's modified Dulbecco's medium (IMDM; GIBCO) containing 10% fetal bovine serum (FBS; TRACE SCIENTIFIC) using a CO2 incubator (5% CO2, 37° C.).
The subcultured cells described above were washed twice with phosphate buffered saline (PBS) and suspended in IMDM containing 10% FBS at a cell density of 6×10^4 cells/ml. The cell suspension was transferred to a 96-well tissue culture plate (CORNING) in 100-μl aliquots. Then either TPO (PeproTech EC) or Synthetic Example 56 dissolved in dimethylsulfoxide (DMSO) was diluted 83-fold with IMDM containing 10% FBS and added to the aforementioned cell suspension in 20-μl aliquots. The suspension was incubated in a CO2 incubator (5% CO2, 37° C.) for 4 days. Cell proliferation was assayed according to the method of Mosmann et al. (J. Immunol. Methods, 65:55-63 (1983)). A 10-μl aliquot of 5 mg/ml MTT reagent (SIGMA) was added to each well of the tissue culture plate and the plate was incubated at 37° C. for 4 h. The formazan pigment generated was dissolved by adding 150 μl per well of 0.1 M HCl/isopropanol solution and the absorbance of the resulting pigment solution was measured at 550 nm with a 96-well microplate reader (BIO-RAD, M450).
The following Synthetic Examples were tested according to the method of Assay Example 1 to determine the maximal growth rate (efficacy), expressed by taking the value with human leukemic cell line UT7/EPO-mpl observed in the presence of 10 ng/ml TPO as 100% standard, and the concentration of each compound that yields a growth rate corresponding to 50% of the maximum cell growth observed with the same compound (EC50).
Synthetic Example 56, the compound of the present invention, and four compounds (Reference Synthetic Examples 1 to 4) described in a publication of international patent application (Publication No. WO01/34585, applied by SmithKline Beecham Corp.) were tested according to the method of Assay Example 1.

[1] = read-out: EC50 (ng/ml) (converted)

| SMILES | EC50 | Efficacy (%) (maximal growth rate) | EC50 [1] | Emax |
| --- | --- | --- | --- | --- |
| CC1=NN(c2ccc(Cl)c(Cl)c2)C(=O)C1=C(C)NNC(=O)c1ccc(O)c(O)c1 [compound 65] | 0.0089 µg/mL | 70% | – | – |
| CC1=NN(c2cccc(C(F)(F)F)c2)C(=O)C1=C(C)NNC(=O)c1ccc(O)cc1O [compound 48] | 0.008 µg/mL | 62% | – | – |
| COC(=O)c1ccc(C(=O)NNC(C)=C2C(=O)N(c3ccc(C(F)(F)F)cc3)N=C2C)cc1 [compound 10] | – | – | 43.4 nM | 78% |
| CC1=NN(c2ccc(C(C)(C)C)cc2)C(=O)C1=C(C)NNC(=O)c1ccc(C(C)(C)C)cc1 [compound 72] | 0.075 µg/mL | 88% | – | – |
| CC1=NN(c2ccc(Cl)c(Cl)c2)C(=O)C1=C(C)NNC(=O)c1cccc(N)c1 [compound 78] | 0.015 µg/mL | 69% | – | – |
| CC1=NN(c2ccc(Cl)c(Cl)c2)C(=O)C1=C(C)NNC(=O)c1ccc(C(C)(C)C)cc1 [compound 80] | 0.64 µg/mL | 71% | – | – |
| CC1=NN(c2ccc(Cl)c(Cl)c2)C(=O)C1=C(C)NNC(=O)c1ccc(O)cc1 [compound 62] | 0.0064 µg/mL | 57% | – | – |
| CC1=NN(c2ccc(C)c(C)c2)C(=O)C1=C(C)NNC(=O)c1cccc(C(=O)O)c1 [compound 13] | 0.28 µg/mL | 99% | – | – |
| CC1=NN(c2cccc(C(F)(F)F)c2)C(=O)C1=C(C)NNC(=O)c1cccc([N+](=O)[O-])c1 [compound 51] | 0.033 µg/mL | 73% | – | – |
| CC1=NN(c2ccc(Cl)c(Cl)c2)C(=O)C1=C(C)NNC(=O)c1ccccc1[N+](=O)[O-] [compound 66] | 0.033 µg/mL | 133% | – | – |
| CC1=NN(c2ccc(C(F)(F)F)cc2)C(=O)C1=C(C)NNC(=O)c1ccc([N+](=O)[O-])cc1 [compound 37] | 0.14 µg/mL | 63% | – | – |
| CC1=NN(c2ccc(C)c(C)c2)C(=O)C1=C(C)NNC(=O)c1cc(O)cc(O)c1 [compound 3] | 0.015 µg/mL | 82% | – | – |
| CC1=NN(c2ccc(C)c(C)c2)C(=O)C1=C(C)NNC(=O)c1ccccc1[N+](=O)[O-] [compound 58] | 0.032 µg/mL | 110% | – | – |
| CC1=NN(c2ccc(C)c(C)c2)C(=O)C1=C(C)NNC(=O)c1ccccc1O [compound 53] | – | – | 31.7 nM | 120% |
| CC1=NN(c2cccc(C(F)(F)F)c2)C(=O)C1=C(C)NNC(=O)c1ccc(O)c(O)c1 [compound 49] | 0.0091 µg/mL | 62% | – | – |
| CC1=NN(c2ccc(C(C)(C)C)cc2)C(=O)C1=C(C)NNC(=O)c1ccc(O)c(O)c1 [compound 27] | 0.0056 µg/mL | 75% | – | – |
| CC1=NN(c2ccc(Cl)c(Cl)c2)C(=O)C1=C(C)NNC(=O)c1ccc([N+](=O)[O-])cc1 [compound 68] | 0.21 µg/mL | 26% | – | – |

| SMILES | EC50 | Efficacy (%) (maximal growth rate) | EC50 [1] | Emax |
| --- | --- | --- | --- | --- |
| CC1=NN(c2ccc(Cl)c(Cl)c2)C(=O)C1=C(C)NNC(=O)c1ccc(C(F)(F)F)cc1 [compound 79] | 0.16 µg/mL | 81% | – | – |
| CC1=NN(c2ccc(C(C)(C)C)cc2)C(=O)C1=C(C)NNC(=O)c1ccccc1[N+](=O)[O-] [compound 28] | 0.037 µg/mL | 99% | – | – |
| CC1=NN(c2ccc(C(C)(C)C)cc2)C(=O)C1=C(C)NNC(=O)c1cc2ccccc2cc1O [compound 25] | 0.2 µg/mL | 54% | – | – |
| CC1=NN(c2ccccc2)C(=O)C1=C(C)NNC(=O)c1cc2ccccc2cc1O [compound 18] | 0.055 µg/mL | 94% | – | – |
| CC1=NN(c2ccc(C(C)(C)C)cc2)C(=O)C1=C(C)NNC(=O)c1ccc(O)cc1O [compound 26] | 0.0029 µg/mL | 78% | – | – |
| CC1=NN(c2ccc(C)c(C)c2)C(=O)C1=C(C)NNC(=O)c1ccc(N)cc1 [compound 73] | 0.01 µg/mL | 84% | – | – |
| CC1=NN(c2ccc(C)c(C)c2)C(=O)C1=C(C)NNC(=O)c1ccc(O)c(O)c1 [compound 57] | 0.0059 µg/mL | 97% | – | – |
| CC1=NN(c2ccc(C(F)(F)F)cc2)C(=O)C1=C(C)NNC(=O)c1ccc(N)cc1 [compound 92] | 0.0055 µg/mL | 82% | – | – |
| Cc1ccc(-n2nc(C)c(C=NN3CC(=O)N(c4cccc(C(=O)O)c4)C3=S)c2O)cc1C [Reference Synthetic Example 3, 3-(3-carboxyphenyl)-1-[(1-{3,4-dimethylphenyl}-5-hydroxy-3-methyl-1H-pyrazol-4-ylmethylene)amino]-2-thioxoimidazolidin-4-one, reference compound] | – | – | – | 7% |
| CC1=NN(c2ccc(C)c(C)c2)C(=O)C1=C(C)NNC(=O)c1cc2ccccc2cc1O [compound 55] | 0.22 µg/mL | 53% | – | – |
| CC1=NN(c2ccc(C(F)(F)F)cc2)C(=O)C1=C(C)NNC(=O)c1ccc(C(=O)O)cc1 [compound 11] | 0.002 µg/mL | 83% | – | – |
| CC1=NN(c2ccc(C(F)(F)F)cc2)C(=O)C1=C(C)NNC(=O)c1ccccc1O [compound 30] | 0.019 µg/mL | 106% | – | – |
| Cc1ccc(-n2nc(C)c(C=NN3C(=O)C(=Cc4cccc(C(=O)O)c4)SC3=S)c2O)cc1C [Reference Synthetic Example 2, 5-(3-carboxybenzylidene)-3-[(1-{3,4-dimethylphenyl}-5-hydroxy-3-methyl-1H-pyrazol-4-ylmethylene)amino]-2-thioxothiazolidin-4-one, reference compound] | – | – | – | 12% |
| CC1=NN(c2ccc(C(C)(C)C)cc2)C(=O)C1=C(C)NNC(=O)c1ccc(C(=O)O)cc1 [compound 5] | 0.0034 µg/mL | 86% | – | – |
| CC1=NN(c2ccccc2)C(=O)C1=C(C)NNC(=O)c1cccc([N+](=O)[O-])c1 [compound 14] | 0.072 µg/mL | 91% | – | – |
| CC1=NN(c2ccc(C(C)(C)C)cc2)C(=O)C1=C(C)NNC(=O)c1ccc(O)cc1 [compound 24] | 0.0072 µg/mL | 89% | – | – |
| CC1=NN(c2ccc(C)c(C)c2)C(=O)C1=C(C)NNC(=O)c1cccc(N)c1 [compound 74] | 0.025 µg/mL | 77% | – | – |
